Laboratory results published in patent US20050288307A1, “Anti-viral compounds” (priority 2002, published 2005).
Where two headings read alike, the source gives them in different places.

Tests used:
CDK2/Cyclin E = target: T1, CDK2/Cyclin E (Homo sapiens, UniProt P24941); test: CDK2/cyclin E kinase assay (GST-Rb phosphorylation); format: biochemical;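 also: enzyme source: His-tagged CDK2/cyclin E complex co-expressed recombinantly in Sf9 insect cells using baculovirus constructs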
T1 construct: His; made in house; host or cells: Sf9 insect cells (baculovirus)

CDK2/cyclin A = CDK2/cyclin A (Homo sapiens, UniProt P24941); test: CDK2/cyclin A kinase assay; format: biochemical;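 also: Read-out is incorporated radioactivity retained on P81 filter plates and quantified by scintillation counting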
Experimental: Reactions were stopped on ice, followed by filtration through p81 filterplates (Whatman Polyfiltronics, Kent, UK). After washing 3 times with 75 mM orthophosphoric acid, plates were dried, scintillant added and incorporated radioactivity measured in a scintillation counter (TopCount, Packard Instruments, Pangboume, Berks, UK).

CDK4/Cyclin D1 = CDK4/Cyclin D1 (Homo sapiens, UniProt P11802); test: CDK4/cyclin D1 kinase assay (GST-Rb phosphorylation); format: biochemical
CDK7/cyclin H = CDK7/cyclin H (Homo sapiens, UniProt P50613); test: CDK7 assay (CTD peptide substrate); format: biochemical
Experimental: (§1) CTD peptide substrate (biotinyl-Ahx-(Tyr-Ser-Pro-Thr-Ser-Pro-Ser)4-NH2; 1-2 mg/mL) and recombinant human CDK7/cyclin H, CDK9/cyclin T1, or CDK9/cyclin K (0.5-2 μg) were incubated for 45 min at 30° C. in the presence of varying amounts of test compound in 20 mM MOPS pH 7.2, 25 mM β-glycerophosphate, 5 mM EGTA, 1 mM DTT, 1 mM sodium vanadate, 15 mM MgCl2, and 100 μM ATP (containing a trace amount of ^32PγATP) in a total volume of 25 μL in a 96-well microtiter plate. The reaction was stopped by placing the plate on ice for 2 min. Avidin (50 μg) was added to each well, and the plate was incubated at room temp for 30 min. The samples were transferred to a 96-well P81 filter plate, and washed (4×200 μL per well) with 75 mM phosphoric acid. Microscint 40 scintillation liquid (50 μL) was added to each well, and the amount of ^32P incorporation for each sample was measured using a Packard Topcount microplate scintillation counter.

CDK1/Cyclin B = CDK1/Cyclin B (Homo sapiens, UniProt P06493); test: CDK1/cyclin B kinase assay (GST-Rb phosphorylation);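 also: Enzyme: His-tagged CDK1/Cyclin B co-expressed in baculovirus-infected Sf9 insect cells, purified via metal-chelate chromatography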
Experimental: His-tagged CDK2/Cyclin E and CDK1/Cyclin B may be co-expressed and PKCα singularly expressed in Sf 9 insect cells infected with the appropriate baculovirus constructs. The cells are harvested two days after infection by low speed centrifugation and the proteins purified from the insect cell pellets by Metal-chelate chromatography. Briefly, the insect cell pellet is lysed in Buffer A (10 mM Tris-HCl, pH 8.0, 150 mM NaCl, 0.02% NP40 and 5 mM β-marcaptoethanol, 1 mM NaF. 1 mM Na3VO4 and Protease Inhibitors Coctail (Sigma) containing AEBSF, pepstatin A, E 64, bestatin, leupeptin) by sonication. The soluble fraction is cleared by centrifugation and loaded onto Ni-NTA-Agarose (Quiagen). Non bound proteins were washed off with 300 mM NaCl, 5-15 mM Imidazole in Buffer A and the bound proteins eluted with 250 mM Imidazole in Buffer A. The purified proteins are extensively dialyzed against Storage buffer (20 mM HEPES pH 7.4, 50 mM NaCl, 2 mM DTT, 1 mM EDTA, 1 mM EGTA, 0.02% NP40, 10% v/v Glycerol) aliquoted and stored at −70° C.

CDK9/cyclin T1 = CDK9/cyclin T1 (Homo sapiens, UniProt P50750); test: CDK9 assay (CTD peptide substrate); format: biochemical
Experimental: as §1

[1] = Table 3, read-out: Average IC50 CDK2 cyclin E1
[2] = Table 3, read-out: Average IC50 CDK2 cyclin A2
[3] = Table 3, read-out: Average IC50 CDK4 cyclin D1
[4] = Table 3, read-out: Average IC50 CDK7 cyclin H
[5] = Table 3, read-out: Average IC50 CDK9 cyclin T1
[6] = Table 4, read-out: Kinase Inhibition IC50 CDK2-cyclin E
[7] = Table 4, read-out: Kinase Inhibition IC50 CDK2-cyclin A
[8] = Table 4, read-out: Kinase Inhibition IC50 CDK4-cyclin D1
[9] = Table 4, read-out: Kinase Inhibition IC50 CDK9-cyclin T1
[10] = Table 4, read-out: Kinase Inhibition IC50 CDK7-cyclin H

Sequence of CDK4/Cyclin D1 (P11802 whole entry, species assumed): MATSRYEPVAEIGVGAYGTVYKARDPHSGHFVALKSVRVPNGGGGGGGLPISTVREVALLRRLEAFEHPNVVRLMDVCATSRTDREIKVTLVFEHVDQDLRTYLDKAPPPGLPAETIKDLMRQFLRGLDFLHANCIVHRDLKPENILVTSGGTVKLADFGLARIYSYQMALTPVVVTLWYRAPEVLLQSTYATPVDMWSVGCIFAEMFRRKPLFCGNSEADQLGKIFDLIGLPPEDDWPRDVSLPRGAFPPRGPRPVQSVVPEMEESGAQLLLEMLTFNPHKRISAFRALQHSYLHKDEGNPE
Sequence of CDK4/Cyclin D1 (P24385 whole entry partner, species assumed): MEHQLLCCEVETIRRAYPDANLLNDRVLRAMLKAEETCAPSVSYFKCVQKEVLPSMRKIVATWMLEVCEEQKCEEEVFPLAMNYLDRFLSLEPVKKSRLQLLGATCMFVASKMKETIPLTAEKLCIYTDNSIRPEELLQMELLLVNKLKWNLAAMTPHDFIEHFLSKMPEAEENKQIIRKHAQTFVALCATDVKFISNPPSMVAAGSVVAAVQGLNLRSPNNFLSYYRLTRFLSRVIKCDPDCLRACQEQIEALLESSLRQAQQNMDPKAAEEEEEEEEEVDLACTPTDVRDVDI
Sequence of CDK1/Cyclin B (P06493 whole entry, species assumed): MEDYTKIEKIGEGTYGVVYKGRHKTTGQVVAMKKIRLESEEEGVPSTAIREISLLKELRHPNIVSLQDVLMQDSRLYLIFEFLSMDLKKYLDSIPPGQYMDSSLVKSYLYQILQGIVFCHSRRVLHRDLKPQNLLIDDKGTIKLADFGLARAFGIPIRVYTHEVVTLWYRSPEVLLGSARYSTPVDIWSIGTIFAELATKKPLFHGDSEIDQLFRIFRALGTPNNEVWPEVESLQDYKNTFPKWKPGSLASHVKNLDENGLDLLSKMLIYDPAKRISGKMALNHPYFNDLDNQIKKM
Sequence of CDK1/Cyclin B (P14635 whole entry partner, species assumed): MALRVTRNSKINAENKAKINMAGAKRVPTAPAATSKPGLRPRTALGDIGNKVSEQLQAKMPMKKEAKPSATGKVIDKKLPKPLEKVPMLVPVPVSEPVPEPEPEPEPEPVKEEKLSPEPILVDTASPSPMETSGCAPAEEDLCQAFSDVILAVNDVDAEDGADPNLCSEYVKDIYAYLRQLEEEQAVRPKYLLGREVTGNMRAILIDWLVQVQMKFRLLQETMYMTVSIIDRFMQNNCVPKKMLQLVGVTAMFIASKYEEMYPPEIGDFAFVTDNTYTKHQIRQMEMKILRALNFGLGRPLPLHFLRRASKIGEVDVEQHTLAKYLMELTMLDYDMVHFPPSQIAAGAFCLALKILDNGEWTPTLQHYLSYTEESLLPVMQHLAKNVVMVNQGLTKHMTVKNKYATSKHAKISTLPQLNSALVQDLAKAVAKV
Sequence of CDK9/cyclin T1 (P50750 whole entry): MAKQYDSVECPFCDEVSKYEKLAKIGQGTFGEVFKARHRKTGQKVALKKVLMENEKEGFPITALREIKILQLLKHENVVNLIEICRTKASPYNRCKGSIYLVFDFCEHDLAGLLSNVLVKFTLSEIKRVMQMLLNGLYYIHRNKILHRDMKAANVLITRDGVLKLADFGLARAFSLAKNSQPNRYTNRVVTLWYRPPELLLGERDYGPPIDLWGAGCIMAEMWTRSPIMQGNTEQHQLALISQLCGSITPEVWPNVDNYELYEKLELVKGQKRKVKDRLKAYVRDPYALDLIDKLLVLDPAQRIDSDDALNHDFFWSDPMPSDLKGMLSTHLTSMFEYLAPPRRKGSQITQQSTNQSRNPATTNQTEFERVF
Sequence of CDK9/cyclin T1 (O60563 whole entry partner): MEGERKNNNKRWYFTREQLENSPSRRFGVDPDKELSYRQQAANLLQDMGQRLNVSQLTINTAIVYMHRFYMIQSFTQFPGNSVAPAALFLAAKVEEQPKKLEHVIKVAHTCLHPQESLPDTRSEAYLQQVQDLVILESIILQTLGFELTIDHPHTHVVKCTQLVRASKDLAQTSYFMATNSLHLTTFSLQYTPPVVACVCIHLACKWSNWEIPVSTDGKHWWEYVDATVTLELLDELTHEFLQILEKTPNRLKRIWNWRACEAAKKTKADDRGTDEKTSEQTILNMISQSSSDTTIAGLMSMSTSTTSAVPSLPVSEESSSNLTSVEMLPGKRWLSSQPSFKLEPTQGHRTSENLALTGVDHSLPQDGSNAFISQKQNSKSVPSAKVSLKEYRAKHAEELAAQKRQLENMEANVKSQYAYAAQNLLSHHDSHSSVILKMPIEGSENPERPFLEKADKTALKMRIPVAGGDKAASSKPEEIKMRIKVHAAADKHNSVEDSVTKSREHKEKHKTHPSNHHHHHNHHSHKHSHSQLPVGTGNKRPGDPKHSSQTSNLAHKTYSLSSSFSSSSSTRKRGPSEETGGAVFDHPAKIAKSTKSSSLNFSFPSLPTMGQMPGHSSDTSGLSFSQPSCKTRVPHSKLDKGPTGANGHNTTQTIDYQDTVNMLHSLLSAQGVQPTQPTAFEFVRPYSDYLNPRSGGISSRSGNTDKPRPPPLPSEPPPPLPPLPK
Sequence of CDK7/cyclin H (P50613 whole entry): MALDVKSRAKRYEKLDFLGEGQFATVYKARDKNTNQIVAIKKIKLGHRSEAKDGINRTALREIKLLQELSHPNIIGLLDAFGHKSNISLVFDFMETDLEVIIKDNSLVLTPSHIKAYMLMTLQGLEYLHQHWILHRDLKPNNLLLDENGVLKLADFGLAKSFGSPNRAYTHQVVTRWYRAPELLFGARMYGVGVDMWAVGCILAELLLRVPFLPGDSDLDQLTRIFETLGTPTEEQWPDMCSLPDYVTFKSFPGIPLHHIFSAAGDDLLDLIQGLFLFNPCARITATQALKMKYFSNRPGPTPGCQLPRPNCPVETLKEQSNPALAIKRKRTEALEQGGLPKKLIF
Sequence of CDK7/cyclin H (P51946 whole entry partner): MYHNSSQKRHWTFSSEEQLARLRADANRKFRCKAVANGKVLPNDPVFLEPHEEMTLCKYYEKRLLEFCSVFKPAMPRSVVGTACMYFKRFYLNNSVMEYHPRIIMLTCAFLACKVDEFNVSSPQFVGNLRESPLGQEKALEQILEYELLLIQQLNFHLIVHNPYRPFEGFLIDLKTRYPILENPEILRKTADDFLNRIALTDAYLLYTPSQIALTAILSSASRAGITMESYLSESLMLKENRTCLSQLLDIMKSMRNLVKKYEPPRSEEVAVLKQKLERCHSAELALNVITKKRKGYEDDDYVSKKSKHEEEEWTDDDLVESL

IC50 (CDK2/Cyclin E; [1])	IC50 (CDK2/cyclin A; [2])	IC50 (CDK4/Cyclin D1; [3])	IC50 (CDK7/cyclin H; [4])	IC50 (CDK1/Cyclin B)	IC50 (CDK9/cyclin T1; [5])	IC50 (CDK2/Cyclin E; [6])	IC50 (CDK2/cyclin A; [7])	IC50 (CDK4/Cyclin D1; [8])	IC50 (CDK9/cyclin T1; [9])	IC50 (CDK7/cyclin H; [10])	Compound
28 nM	1 nM	3.8 µM	11000 nM	48 nM	–	–	–	–	–	–	Cc1nc(C)c(-c2ccnc(Nc3ccc(S(=O)(=O)O)cc3)n2)s1 [Compound 148, 4-[4-(2,4-Dimethyl-thiazol-5-yl)-pyrimidin-2-ylamino]-benzenesulfonic acid]
–	–	–	16000 nM	17000 nM	310 nM	–	–	–	–	–	Cc1nc(C)c(-c2ccnc(Nc3ccc(F)cc3)n2)s1 [Compound 8, [4-(2,4-Dimethyl-thiazol-5-yl)-pyrimidin-2-yl]-(4-fluoro-phenyl)-amine]
–	–	–	1000 nM	–	45 nM	–	–	–	–	–	Cc1nc(N)sc1-c1ccnc(Nc2ccc(O)cc2)n1 [Compound 98, 4-[4-(2-Amino-4-methyl-thiazol-5-yl)-pyrimidin-2-ylamino]-phenol]
–	–	–	3200 nM	1200 nM	240 nM	–	–	–	–	–	Cc1nc(C)c(-c2ccnc(Nc3cccc(O)c3)n2)s1 [Compound 27, 3-[4-(2,4-Dimethyl-thiazol-5-yl)-pyrimidin-2-ylamino]-phenol]
470 nM	570 nM	3.3 µM	–	1900 nM	–	–	–	–	–	–	Cc1nc(C)c(-c2ccnc(Nc3ccc(CCO)cc3)n2)s1 [Compound 123, 2-{4-[4-(2,4-Dimethyl-thiazol-5-yl)-pyrimidin-2-ylamino]-phenyl}-ethanol]
–	–	–	–	1800 nM	–	1700 nM	1200 nM	18 µM	150 nM	–	Cc1cc(Nc2nccc(-c3sc(=O)n(C)c3C)n2)ccc1Cl [Compound 160, 5-[2-(4-Chloro-3-methyl-phenylamino)-pyrimidin-4-yl]-3,4-dimethyl-3H-thiazol-2-one]
1700 nM	25000 nM	30 µM	–	47000 nM	23000 nM	–	–	–	–	–	CCCCNc1nc(C)c(-c2ccnc(Nc3ccc(F)cc3)n2)s1 [Compound 139, [4-(2-Butylamino-4-methyl-thiazol-5-yl)-pyrimidin-2-yl]-(4-fluoro-phenyl)-amine]
–	–	–	–	1400 nM	–	–	270 nM	–	–	8700 nM	Cc1c(-c2ccnc(Nc3ccc(Cl)cc3)n2)sc(=O)n1C [Compound 156, 5-[2-(4-Chloro-phenylamino)-pyrimidin-4-yl]-3,4-dimethyl-3H-thiazol-2-one]
–	–	–	–	2100 nM	–	3200 nM	710 nM	4 µM	110 nM	–	Cc1ccc(Nc2nccc(-c3sc(=O)n(C)c3C)n2)cc1I [Compound 161, 5-[2-(3-Iodo-4-methyl-phenylamino)-pyrimidin-4-yl]-3,4-dimethyl-3H-thiazol-2-one]
380 nM	1400 nM	1.2 µM	–	2900 nM	–	–	–	–	–	–	Cc1nc(N)sc1-c1ccnc(Nc2cccc(F)c2)n1 [Compound 109, [4-(2-Amino-4-methyl-thiazol-5-yl)-pyrimidin-2-yl]-(3-fluoro-phenyl)-amine]
–	–	–	–	820 nM	–	78 nM	260 nM	–	–	1100 nM	Cc1c(-c2ccnc(Nc3ccc(F)c([N+](=O)[O-])c3)n2)sc(=O)n1C [Compound 159, 5-[2-(4-Fluoro-3-nitro-phenylamino)-pyrimidin-4-yl]-3,4-dimethyl-3H-thiazol-2-one]
–	–	–	860 nM	–	76 nM	–	–	–	–	–	CNc1nc(C)c(-c2ccnc(Nc3ccc(O)cc3)n2)s1 [Compound 48, 4-[4-(4-Methyl-2-methylamino-thiazol-5-yl)-pyrimidin-2-ylamino]-phenol]
–	–	–	–	3000 nM	–	610 nM	16 nM	0.56 µM	2.2 nM	120 nM	Cc1c(-c2ccnc(Nc3cccc([N+](=O)[O-])c3)n2)sc(=O)n1C [Compound 153, 3,4-Dimethyl-5-[2-(3-nitro-phenylamino)-pyrimidin-4-yl]-3H-thiazol-2-one]
22000 nM	> 100000 nM	> 100 µM	> 100000 nM	> 100000 nM	85000 nM	–	–	–	–	–	Cc1nc(C)c(-c2ccnc(Nc3cccc(C(F)(F)F)c3)n2)s1 [Compound 13, [4-(2,4-Dimethyl-thiazol-5-yl)-pyrimidin-2-yl]-(3-trifluoromethyl-phenyl)-amine]
160 nM	410 nM	4.9 µM	11000 nM	1500 nM	–	–	–	–	–	–	Cc1nc(C)c(-c2ccnc(Nc3ccccc3)n2)s1 [Compound 150, [4-(2,4-Dimethyl-thiazol-5-yl)-pyrimidin-2-yl]-phenyl-amine]
–	–	–	–	2200 nM	–	–	–	1 µM	130 nM	1800 nM	Cc1c(-c2ccnc(Nc3ccc(N(C)C)cc3)n2)sc(=O)n1C [Compound 164, 5-[2-(4-Dimethylamino-phenylamino)-pyrimidin-4-yl]-3,4-dimethyl-3H-thiazol-2-one]
3000 nM	3700 nM	6.7 µM	–	8600 nM	–	–	–	–	–	–	CCN(CCO)c1ccc(Nc2nccc(-c3sc(C)nc3C)n2)cc1 [Compound 124, 2-({4-[4-(2,4-Dimethyl-thiazol-5-yl)-pyrimidin-2-ylamino]-phenyl}-ethyl-amino)-ethanol]
250 nM	520 nM	0.5 µM	990 nM	710 nM	59 nM	–	–	–	–	–	Cc1nc(N)sc1-c1ccnc(Nc2cccc(N)c2)n1 [Compound 149, N-[4-(2-Amino-4-methyl-thiazol-5-yl)-pyrimidin-2-yl]-benzene-1,3-diamine]
770 nM	> 100000 nM	> 100 µM	19000 nM	> 100000 nM	8300 nM	–	–	–	–	–	CNc1nc(C)c(-c2ccnc(Nc3cccc(C(F)(F)F)c3)n2)s1 [Compound 75, [4-(4-Methyl-2-methylamino-thiazol-5-yl)-pyrimidin-2-yl]-(3-trifluoromethyl-phenyl)-amine]
6800 nM	39000 nM	–	–	> 100000 nM	–	–	–	–	–	–	CCNc1nc(C)c(-c2ccnc(Nc3cccc(OC)c3)n2)s1 [Compound 136, [4-(2-Ethylamino-4-methyl-thiazol-5-yl)-pyrimidin-2-yl]-(3-methoxy-phenyl)-amine]
–	–	–	310 nM	–	260 nM	–	–	–	–	–	Cc1nc(C)c(-c2ccnc(Nc3cccc(NC(=N)N)c3)n2)s1 [Compound 99, N-{3-[4-(2,4-Dimethyl-thiazol-5-yl)-pyrimidin-2-ylamino]-phenyl}-guanidine]
88 nM	4200 nM	4.7 µM	390 nM	> 100000 nM	210 nM	–	–	–	–	–	CCNc1nc(C)c(-c2ccnc(Nc3cccc([N+](=O)[O-])c3)n2)s1 [Compound 133, [4-(2-Ethylamino-4-methyl-thiazol-5-yl)-pyrimidin-2-yl]-(3-nitro-phenyl)-amine]
1100 nM	670 nM	4.1 µM	4900 nM	470 nM	–	–	–	–	–	–	COc1ccc(Nc2nccc(-c3sc(C)nc3C)n2)cc1N(C)C [Compound 130, N^1-[4-(2,4-Dimethyl-thiazol-5-yl)-pyrimidin-2-yl]-4-methoxy-N^3,N^3-dimethyl-benzene-1,3-diamine]
390 nM	910 nM	1.5 µM	–	2800 nM	–	–	–	–	–	–	COc1cccc(Nc2nccc(-c3sc(N)nc3C)n2)c1 [Compound 108, [4-(2-Amino-4-methyl-thiazol-5-yl)-pyrimidin-2-yl]-(3-methoxy-phenyl)-amine]
–	–	–	–	370 nM	–	93 nM	86 nM	1 µM	–	1300 nM	Cc1c(-c2ccnc(Nc3cccc(O)c3)n2)sc(=O)n1C [Compound 158, 5-[2-(3-Hydroxy-phenylamino)-pyrimidin-4-yl]-3,4-dimethyl-3H-thiazol-2-one]
2700 nM	9500 nM	–	–	41000 nM	–	–	–	–	–	–	CCNc1nc(C)c(-c2ccnc(Nc3ccc(C)c([N+](=O)[O-])c3)n2)s1 [Compound 138, [4-(2-Ethylamino-4-methyl-thiazol-5-yl)-pyrimidin-2-yl]-(4-methyl-3-nitro-phenyl)-amine]
5600 nM	–	> 50 µM	> 100000 nM	32000 nM	–	–	–	–	–	–	Cc1nc(C)c(-c2ccnc(Nc3cccc(Cl)c3)n2)s1 [Compound 3, (3-Chloro-phenyl)-[4-(2,4-dimethyl-thiazol-5-yl)-pyrimidin-2-yl]-amine]
140 nM	310 nM	1.7 µM	–	1600 nM	1300 nM	–	–	–	–	–	COc1ccc(Nc2nccc(-c3sc(C)nc3C)n2)cc1O [Compound 126, 5-[4-(2,4-Dimethyl-thiazol-5-yl)-pyrimidin-2-ylamino]-2-methoxy-phenol]
